In US20050059615A1, “Transmucosal dosage forms for brain-targeted steroid chemical delivery systems” (priority 2003, published 2005):
Like-named read-outs stand apart in the source and are kept apart here.

What was measured:
[1] = Phase I clinical study: serum estradiol (E2) levels; format: in vivo, postmenopausal women; details: 2.86 mg buccal, repeated dosing, both groups
Description: (§1) A brief evaluation of the results follows:

[2] = test system: 2OHE1/16OHE1; experiment: Phase I clinical study: urinary estrone and 2OHE1/16OHE1
Experimental: (§2) Even more recently, in a Phase I clinical study of postmenopausal women, two different administration regimens of a 2.86 mg E2-CDS buccal delivery tablet were evaluated for safety and effects on hormone levels. The subjects were 12 healthy postmenopausal volunteers, divided into two groups of six. In Group A, women were dosed once daily for 10 days (10 doses); in Group B, women were dosed once every other day for 13 days (7 doses).
Urine was collected for 24 hours on day 1 in both groups, and overnight (8 hours) on day 10 (Group A) and on day 13 (Group B), respectively, to determine the amounts of voided urinary estrone (E1), 2OHE1, 16OHE, and the ratios of 2OHE1 to 16OHE1.

[3] = test system: castrated male rats; details: single intravenous dose of 3 mg/kg; cited from earlier work
[4] = test system: SHBG (Sex Hormone-binding Globulin); experiment: Phase I clinical study: SHBG; format: in vivo, postmenopausal women
Description: as §1

[5] = average 7 degrees of substitution, cited from earlier work
[6] = test system: castrated male rats; experiment: Male rat sexual (copulatory) behavior after orchidectomy; format: in vivo, Sprague Dawley rats
Experimental: Adult male Sprague Dawley rats (300-400 g) from Charles River Hungary Ltd., Godollo, Hungary, were used. Animals were kept in community cages (4 animals/cage) in a climate-controlled room (23∀2EC), with a 14 hour light, 10 hour dark cycle of artificial lighting, using reversed light/dark cycle. […] These hormones were dissolved in sunflower oil.
After establishment of basal behaviors as discussed below, selected animals were orchidectomized via a single midventral incision and were rehoused.
After repeated testing of animals recovered from orchidectomy as discussed below, rats were divided into four groups and treated intravenously, via a single tail vein injection, with one of the following: group 1: control (27% hydroxypropyl-β-cyclodextrin); group 2: 0.03 mg/kg E2-CDS; group 3: 0.3 mg/kg E2-CDS; and group 4: 3 mg/kg E2-CDS.
Mating was observed during the dark cycle in a plexi observation cage in a room where only a dim red light was on. The male was placed in the observation cage 5 minutes prior to the female.
The following parameters were then measured: • Mount latency (ML): the time from the introduction of the female to the initial mount or intromission; • Intromission latency (IL): the time from introduction of the female to the first intromission; and • Ejaculatory latency (EL): the time from the first intromission to ejaculation.
Sessions were considered negative if IL exceeded 15 minutes.
To establish basal behavior, each male was tested every 5 days until four successive and consistent behavioral patterns were achieved. This pretesting lasted for about four weeks. Approximately half of the animals tested were deemed suitable for orchidectomy.
Twenty-eight days after healing from orchidectomy, the animals were tested again (Day 0) and divided into 4 experimental groups. Only animals displaying ejaculation latencies greater than 15 minutes were included in the study.
Tests of male sexual behavior were conducted 3, 7, 14, 21, 28, 35 and 42 days after drug administration or until the effect disappeared, i.e. until no statistically significant difference was found between groups during two consecutive tests.
Behavioral patterns and related times were recorded manually by skilled observers.
Behavioral changes were analyzed using the Mann-Whitney U test (Siegel, Nonparametric Statistics for the Behavioral Sciences, New York; McGraw-Hill Book Company, Inc., 1956). The Fisher exact test was used for percentage comparisons (Zar, Biostatistical Analysis, Prentice Hall, Inc., Englewood Cliffs, N.J., 1974). Serum LH data were analyzed for each time and treatment group by analysis of variance (ANOVA) followed by Bonferroni posthoc test.
The testing described above was repeated using a dose of 0.03 mg/kg administered as a single i.v. injection, and a dose of 0.01 mg/kg with daily i.v. administration for 10 days. E2-CDS stock solution (40%) was diluted in 27% HPβCD solution.
The copulatory behavior of E2-CDS treated groups was compared to that of the HPβCD control group at 1, 3, 7, 14, and 21 days after i.v. drug administration in the 0.03 mg/kg group and at 1, 3, 7, 14 and 21 days after initial i.v. drug administration in the 0.01 mg/kg×10 days group.

[7] = test system: prolactin; experiment: Phase I clinical study: prolactin; format: in vivo, postmenopausal women
Description: as §1

[8] = test system: LH; experiment: Phase I clinical study: LH suppression; format: in vivo, postmenopausal women
Experimental: as §2

[9] = 0.01 mg/kg i.v. daily for 10 days
[10] = 0.01 mg/kg i.v. daily for 10 days, by day 14
[11] = 3.0 mg/kg single i.v., days 14, 21 and 28

In the case of `CN1C=CCC(C(=O)O[C@H]2CC[C@H]3[C@@H]4CCc5cc(O)ccc5[C@H]4CC[C@]23C)=C1` [E2-CDS, 17β-[(1-methyl-1,4-dihydro-3-pyridinyl)carbonyloxy]estra-1,3,5(10)-trien-3-ol], the “accumulation of trough E2 levels” value [1] is reported as “no signs of accumulation”, the “increase of the ratio of 2OHE1 to 16OHE1 during treatment” value ([2]; Group A) is reported as 63.6% and the “increase of the ratio of 2OHE1 to 16OHE1 during treatment” value ([2]; Group B) is reported as 54.7%. The “duration of improved masculine sexual behavior” value [3] was 28 days, the “SHBG concentration higher than at baseline on day 1” value ([4]; Group A, day 13) was 22.2% and the “SHBG concentration higher than at baseline on day 1” value ([4]; Group B, day 16) was 41.2%. For the same compound, the “solubility of E2-CDS (phase solubility data point)” value (from here on “solubility of E2-CDS”) ([5]; 20% w/v HPβCD) was 6.73 mg/mL, the “solubility of E2-CDS” value ([5]; 40% w/v HPβCD) was 16.36 mg/mL and the “solubility of E2-CDS” value ([5]; 60% w/v HPβCD) was 30.19 mg/mL. The intromission frequency [6, 9] was “not increased significantly”, the intromission latency [6, 9] was “reduced significantly” and the mount frequency [6, 9] was “increased significantly”. For the same compound, the mount latency [6, 9] was “reduced significantly”, the “intromission performance restored (% of animals)” value [6, 10] was 50% and the “mounting performance restored (% of animals)” value [6, 10] was 67%. For the same compound, the “effect on re-establishment of copulatory behavior” value ([6]; 0.03 mg/kg single i.v.) was “no statistically significant effect”, the sexual activity ([6]; 0.03 mg/kg single i.v., repeated testing) was “improved sexual activity, but it was not statistically significant” and the “mounting performance restored (% of the animals)” value ([6]; 0.3 mg/kg single i.v., by day 7) was 100%. The mount frequency ([6]; 0.3 mg/kg single i.v., day 7) was “significantly increased”, the mount latency ([6]; 0.3 mg/kg single i.v., day 7 through day 28) was “sharply reduced” and the “mounting performance restored (% of the animals)” value ([6]; 3.0 mg/kg single i.v., by day 14 and day 21) was 100%. For the same compound, the mount latency ([6]; 3.0 mg/kg single i.v., day 7 through day 28) was “sharply reduced”, the intromission performance ([6]; 3.0 mg/kg single i.v., day 14 through day 28) was “improved in a statistically significant manner” and the mount frequency ([6]; 3.0 mg/kg single i.v., days 7, 14, 21 and 28) was “significantly increased”. The intromission frequency [6, 11] was “statistically significant increase”, the intromission latency [6, 11] was “decrease” and the “increase in prolactin levels compared to baseline” value ([7]; end of the study (day 13), Group A) was 29.8%. For the same compound, the “increase in prolactin levels compared to baseline” value ([7]; end of the study (day 16), Group B) was 16%, the “post-study LH levels” value ([8]; 72 hours after the last dose) was “not different any more from screening/baseline values” and the “time of maximum LH depression” value ([8]; Group A) was 7.3±5.3 hours post-dose. The “time of maximum LH depression” value ([8]; Group B) was 7.3±2.7 hours post-dose, the “maximum decrease in LH from baseline” value ([8]; first 24 hours, 2.86 mg buccal, Group A) was 13.8±4.9 mIU/mL and the “maximum decrease in LH from baseline” value ([8]; first 24 hours, 2.86 mg buccal, Group B) was 12.7±6.8 mIU/mL. For the same compound, the “decrease in LH levels from baseline” value ([8]; first 24 hours, 2.86 mg buccal, Groups A and B) was 35-40%.
